Data reported in publication PMC8765781, “A platform of assays for the discovery of anti-Zika small-molecules with activity in a 3D-bioprinted outer-blood-retina model” (PLoS ONE, 2022).
Like-named read-outs stand apart in the source and are kept apart here.

What was measured:
[1] = test system: wild-type ZIKV (Ugandan MR766 strain) in Vero cells; test: ZIKV cytopathic effect (CPE) inhibition qHTS assay, CellTiter-Glo readout; format: cell-based, Zika virus; conditions: for AC50 / IC50: Zika virus; for IC50: read-out: ZIKV-infection (CPE, ZIKV Antiviral Assays), IC50
[2] = test system: caspase-3 activity induced by ZIKV in Vero cells; test: cells; format: cell-based; conditions: Zika virus, read-out: Caspase 3 (ZIKV Antiviral Assays), IC50
[3] = test system: ZIKV-RLuc (Cambodian strain FSS13025); test: microbe, parasite or virus in culture; format: cell-based, Zika virus; conditions: Zika virus, Vero, 48 h, read-out: Rluc-ZIKV (ZIKV Antiviral Assays), IC50
[4] = test system: ZIKV-mCherry (Cambodian strain FSS13025); test: microbe, parasite or virus in culture; format: cell-based, Zika virus; conditions: for AC50: Zika virus, Vero
[5] = test system: mCherry-ZIKV in human neuronal progenitor cells; test: microbe, parasite or virus in culture; format: cell-based, Zika virus; conditions: for IC50 / AC50: Zika virus, Neuronal progenitor cell; for IC50: read-out: NPC (ZIKV Antiviral Assays), IC50
[6] = test system: DENV (Dengue virus type 2, strain New Guinea C)
in vitro [7] = conditions: African green monkey
in vitro [8] = conditions: human
in vitro [9] = conditions: human; remark: listed apart in the source
[10] = test system: ZIKV-mCherry in 3D-oBRB tissue; format: cell-based, Zika virus
Vero cells = conditions: read-out: Cell toxicity counterscreen Vero, CC50
HepG2 cells = conditions: read-out: Cell toxicity counterscreen HepG2, CC50
[11] = test system: ZIKV-mCherry in iPSC-derived RPE monoculture; format: cell-based, Zika virus
[12] = Vero, read-out: Log AC50 (M) (converted)
[13] = read-out: Log AC50 (M) (converted)

Row | Structure (SMILES) | Efficacy [1] | AC50 ([1]; Vero) | IC50 ([1]; Vero, 48 h) | AC50 [1, 12] | IC50 ([2]; Vero, 48 h) | IC50 [3] | CC-v2 (curve class of the dose response curve) [4] | Efficacy (difference between neutral response and maximum compound response) [4] | Max Resp (difference between neutral response and response at highest compound concentration) [4] | CC-v2 (curve class) [5] | Efficacy [5] | Max Resp [5] | IC50 [5] | DENV active Yes/No [6] | ZIKV active Yes/No (ZIKV) | WHV active Yes/No (WNV (Kern515/WN02)) | YFV active Yes/No (YFV (YFV 17D)) | CC50 (in vitro [8]) | CC50 at 24 h (in vitro [9]) | CC-v2 (curve class classification of the dose response curve) [1] | also measured
1 | C=C1CCC2[C@](C)(CCC[C@]2(C)C(=O)O)[C@H]1CC/C(C)=C/C(=O)OC (some centres unmarked) [NCGC00168922-02] | -63.179 | 4.04e-07 M | 0.4 µM | 4.04e-07 M | 7.24 µM | 0.07 µM | -1.4 | -50.999 | -55.843 | 4 | -21.467 | -17.835 | 11.2 µM | No | No | No | No | > 30 µM | 13.3 µM |  | CC50 at 48 h (in vitro [7]; Vero cells): > 50 µM
2 | CNC(=O)c1cc(Oc2ccc(NC(=O)Nc3cc(C(C)(C)C)nn3-c3ccc4ncccc4c3)c(F)c2)ccn1 [NCGC00263172-09] | -30.756 | 2.91e-05 M | 29.1 µM | 2.91e-05 M | 0.01 µM | 8.27 µM | -1.2 | -48.4 | -100.305 |  | -38.32 | -37.38 | 44.7 µM | No | No | No | No | > 30 µM | 12.1 µM | -1.2 | AC50 [4]: 9.46e-07 M; AC50 [4, 13]: 9.46e-07 M; AC50 [5]: 4.47e-05 M; AC50 [5, 13]: 4.47e-05 M; CC50 at 48 h (in vitro [7]; Vero cells): > 50 µM
3 | CCOC(=O)C1=C(C)NC2=C(C(=O)CC(C)(C)C2)C1c1ccc(-c2ccccc2)cc1 (centres unmarked) [NCGC00347947-06] | -55.111 | 2.06e-05 M | 20.6 µM | 2.06e-05 M | 33.1 µM | 14.7 µM | 5 | -39.533 | -99.952 | -2.1 | -93.817 | -85.476 | 35.5 µM | No | No | No | No | 22.4 µM | > 30 µM | -2.2 | AC50 [4]: 8.43e-07 M; AC50 [4, 13]: 8.43e-07 M; Antiviral activity in human NPC [5]: moderate antiviral activity; AC50 [5]: 3.55e-05 M; AC50 [5, 13]: 3.55e-05 M; CC50 at 48 h (in vitro [7]): > 50 µM
4 | COC(=O)[C@]12CCCC(C)(C)C1CCc1cc(C(C)C)c(O)c(O)c12 (some centres unmarked) [NCGC00380281-01] |  |  |  |  |  | 25.6 µM | -1.4 | -82.117 | -100.29 | 4 | -22.278 | -14.815 | 31.6 µM | No | No | No | No | > 30 µM | > 30 µM |  | AC50 ([1]; Vero, from Hill fit of the response curve, 50% of maximum activity response, 194 cherry-picked compounds, protocol name not given, read-out: AC50): 7.18e-06 M; AC50 ([1]; Vero, potency in log units (Molar) from Hill fit of the response curve, 194 cherry-picked compounds, protocol name not given, read-out: Log AC50 (converted)): 7.18e-06 M; IC50 ([1]; Vero cells, wild-type ZIKV MOI 1, 48 hr, unit inferred): 7.18 µM; Efficacy ([1]; difference between neutral response and maximum compound response): -21.701; IC50 ([2]; ZIKV-infected Vero cells, 48 hr, unit inferred): 12.9 µM; CC50 at 48 h (in vitro [7]): > 50 µM
5 | C=C(C)[C@@]12O[C@@H]1[C@@]1(C)C(=CC2=O)CC[C@@H](OC(C)=O)[C@@H]1C [NCGC00380955-01, 3-Acetyl-13-deoxyphomenone] | -61.612 | 4.61e-06 M | 4.61 µM | 4.61e-06 M | 1.66 µM | 2.33 µM | -1.2 | -59.673 | -100.008 | -1.2 | -81.826 | -89.257 | 12.6 µM | Yes | Yes | Yes | Yes |  |  | -1.2 | AC50 [4]: 1.5e-06 M; AC50 [4, 13]: 1.5e-06 M; Antiviral activity in human NPC [5]: effectively inhibited ZIKV in NPC cells; AC50 [5]: 1.26e-05 M; AC50 [5, 13]: 1.26e-05 M; Retention of barrier function (TEER) [10]: 30%; Activity against DENV [6]: pan-activity against all four screened flaviviruses; SI value DENV (CC50/EC50) [6]: 14; Selectivity Index DENV (CC50/EC50) [6]: 14; Activity against ZIKV (ZIKV): pan-activity against all four screened flaviviruses; SI value ZIKV (CC50/EC50) (ZIKV): 22; Selectivity Index ZIKV (CC50/EC50) (ZIKV): 22; Activity against WNV (WNV (Kern515/WN02)): pan-activity against all four screened flaviviruses; SI value WHV (CC50/EC50) (WNV (Kern515/WN02)): 9; Selectivity Index WHV (CC50/EC50) (WNV (Kern515/WN02)): 9; Activity against YFV (YFV (YFV 17D)): pan-activity against all four screened flaviviruses; SI value YFV (CC50/EC50) (YFV (YFV 17D)): 5; Selectivity Index YFV (CC50/EC50) (YFV (YFV 17D)): 5; CC50 (in vitro [7]): > 50 µM
6 | CC1=C[C@H]2O[C@@H]3[C@H](O)[C@@H](O)[C@](C)([C@@]2(CO)C[C@@H]1O)[C@]31CO1 [NCGC00381381-01, T-2 toxin tetraol] |  |  |  |  |  |  |  |  |  |  |  |  |  |  |  |  |  |  |  |  | CC50 (Vero cells): > 50 µM; CC50 (HepG2 cells): > 30 µM
7 | Cc1[nH]c2ccccc2c1C1=C(NCCc2ccc(F)cc2)C(=O)N(C)C1=O [NCGC00386352-05] | -35.912 | 2.06e-05 M | 20.6 µM | 2.06e-05 M | 33.1 µM | 7.37 µM | -1.4 | -71.769 | -66.876 | -2.2 | -103.895 | -78.246 | 39.8 µM | Yes | Yes | No | No | > 30 µM | 17.8 µM | -1.2 | Antiviral activity in human NPC [5]: effectively inhibited ZIKV in NPC cells; AC50 [5]: 3.98e-05 M; AC50 [5, 13]: 3.98e-05 M; Activity against DENV [6]: active against both DENV and ZIKV; SI value DENV (CC50/EC50) [6]: 24; Selectivity Index DENV (CC50/EC50) [6]: 24; Activity against ZIKV (ZIKV): active against both DENV and ZIKV; SI value ZIKV (CC50/EC50) (ZIKV): 23; Selectivity Index ZIKV (CC50/EC50) (ZIKV): 23; CC50 at 48 h (in vitro [7]; Vero cells): > 50 µM
8 | COc1ccc2c(c1)C=C1Cn3c-2c(C2CCCCC2)c2ccc(cc23)C(=O)N[S+](=O)([O-])N(C)CCOCCN(C)C1=O [NCGC00482982-02] | -39.12 | 2.59e-05 M | 25.9 µM | 2.59e-05 M | 1.66 µM | 20.8 µM | -1.4 | -60.775 | -100.29 | 4 | -30.77 | -24.808 | 5.01 µM | No | No | No | No | > 30 µM | > 30 µM | -2.2 | CC50 at 48 h (in vitro [7]; Vero cells): > 50 µM
9 | CO[C@@H]1[C@H](N(C)C(=O)c2ccccc2)C[C@H]2O[C@]1(C)n1c3ccccc3c3c4c(c5c6ccccc6n2c5c31)C(=O)NC4 [midostaurin] |  |  |  |  |  |  |  |  |  |  |  |  |  |  |  |  |  |  |  |  | Retention of barrier function (TEER) [10]: about 40%; Effect on barrier function [11]: exacerbated the barrier function loss
10 | O=C(Nc1ccc([N+](=O)[O-])cc1Cl)c1cc(Cl)ccc1O [niclosamide] |  |  |  |  |  |  |  |  |  |  |  |  |  |  |  |  |  |  |  |  | Identified as active in CPE assay validation set [1]: identified; Effect on barrier function [10]: did not recover the barrier function; Effect on barrier function [11]: did not recover the barrier function
